Reference: ChEMBL document CHEMBL2331133, “Inhibitory effect on NO production of triterpenes from the fruiting bodies of Ganoderma lucidum” (Bioorg Med Chem Lett, 2013)
pIC50: −log10 of the molar value. Activity calls are given as the source filed them. The calls are words filed in the database; no cut-off is given here.

Experiments:
RAW264.7 [1] = assay: Inhibition of LPS-induced iNOS expression in mouse RAW264.7 cells treated 30 mins before LPS challenge measured after 18 hrs by immunoblot analysis; format: functional, cell-based
RAW264.7 [2] = assay: Antiinflammatory activity in mouse RAW264.7 cells assessed as inhibition of LPS-induced nitric oxide production by Griess reaction method; format: functional, cell-based
RAW264.7 [3] = assay: Cytotoxicity against mouse RAW264.7 cells assessed as cell viability at 50 uM after 24 hrs by MTT assay; format: cell-based; settings: for Activity: mouse, raw264.7, 24 h, 50 µM
RAW264.7 [4] = assay: Inhibition of LPS-induced COX-2 expression in mouse RAW264.7 cells at 1 to 30 uM treated 30 mins before LPS challenge measured after 18 hrs by immunoblot analysis; format: functional, cell-based
RAW264.7 [5] = assay: Cytotoxicity against LPS-stimulated mouse RAW264.7 cells assessed as cell viability at 50 uM after 24 hrs by MTT assay; format: cell-based; settings: raw264.7, 24 h

| SMILES | inhibition (RAW264.7 [1]) | pIC50 (RAW264.7 [2]) | Activity (RAW264.7 [3]) | inhibition (RAW264.7 [4]) | Activity (RAW264.7 [5]) | pIC50 (RAW264.7 [3]; Mus musculus, RAW264.7, 24 h) |
| --- | --- | --- | --- | --- | --- | --- |
| CCCCOC(=O)CC[C@@H](C)[C@H]1CC(=O)[C@@]2(C)C3=C(C(=O)[C@@H](OC(C)=O)[C@]12C)[C@@]1(C)CC[C@H](O)C(C)(C)[C@@H]1C[C@@H]3O [BUTYL LUCIDENATE P] | Dose-dependent effect | 5.13 | Non-toxic | Active | Non-toxic |  |
| CCCCOC(=O)CC[C@@H](C)[C@H]1C[C@H](O)[C@@]2(C)C3=C(C(=O)C[C@]12C)[C@@]1(C)CCC(=O)C(C)(C)[C@@H]1C[C@@H]3O [LUCIDENATE Q] |  | 5.37 |  |  |  | 4.85 |
| CC(C)[C@@H](C)/C=C/[C@@H](C)[C@H]1CC[C@@H]2[C@]1(C)CC[C@H]1[C@]23C=C[C@]2(C[C@@H](O)CC[C@]12C)OO3 [ERGOSTEROL PEROXIDE] |  | 5.03 | Non-toxic |  | Non-toxic |  |
| CCCCOC(=O)CC[C@@H](C)[C@H]1CC(=O)[C@@]2(C)C3=C(C(=O)C[C@]12C)[C@@]1(C)CC[C@H](O)C(C)(C)[C@@H]1C[C@@H]3O [BUTYL LUCIDENATE N] | Dose-dependent effect | 5.35 | Non-toxic | Active | Non-toxic |  |
| CC(C)[C@@H](C)/C=C/[C@@H](C)[C@H]1CC[C@H]2C3=CC=C4C[C@@H](O)CC[C@]4(C)[C@H]3CC[C@]12C [ERGOSTEROL] |  |  | Non-toxic |  | Non-toxic |  |
| CC(C)[C@@H](C)/C=C/[C@@H](C)[C@H]1CC[C@H]2C3=CC[C@H]4C[C@@H](O)CC[C@]4(C)[C@H]3CC[C@]12C |  |  | Non-toxic |  | Non-toxic |  |
| C[C@H](CCC=C(CO)CO)[C@H]1CC[C@@]2(C)C3=CC[C@H]4C(C)(C)C(=O)CC[C@]4(C)C3=CC[C@]12C [GANODERIOL F] |  | 4.44 | Non-toxic |  | Non-toxic |  |
| COC(=O)C(C)CC(=O)C[C@@H](C)[C@H]1CC(=O)[C@@]2(C)C3=C(C(=O)[C@@H](OC(C)=O)[C@]12C)[C@@]1(C)CC[C@H](O)C(C)(C)[C@@H]1CC3=O (stereo partly specified) [METHYL GANODERATE H] |  |  | Non-toxic |  | Non-toxic |  |
| COC(=O)C(C)CC(=O)C[C@@H](C)[C@H]1C[C@H](O)[C@@]2(C)C3=C(C(=O)C[C@]12C)[C@@]1(C)CCC(=O)C(C)(C)[C@@H]1CC3=O (stereo partly specified) [METHYL GANODERATE J] |  | 5.04 | Non-toxic |  | Non-toxic |  |
| COC(=O)CC[C@@H](C)[C@H]1CC(=O)[C@@]2(C)C3=C(C(=O)C[C@]12C)[C@@]1(C)CCC(=O)C(C)(C)[C@@H]1C[C@@H]3O [METHYL LUCIDENATE A] |  |  | Non-toxic |  | Non-toxic |  |
| CCCCOC(=O)CC[C@@H](C)[C@H]1CC(=O)[C@@]2(C)C3=C(C(=O)[C@@H](OC(C)=O)[C@]12C)[C@@]1(C)CCC(=O)C(C)(C)[C@@H]1CC3=O [BUTYL LUCIDENATE D2] |  | 4.46 | Non-toxic |  | Non-toxic |  |
| COC(=O)CC[C@@H](C)[C@H]1CC(=O)[C@@]2(C)C3=C(C(=O)C[C@]12C)[C@@]1(C)CC[C@H](O)C(C)(C)[C@@H]1C[C@@H]3O [METHYL LUCIDENATE N] |  |  | Non-toxic |  | Non-toxic |  |
| CCCCOC(=O)CC[C@@H](C)[C@H]1CC(=O)[C@@]2(C)C3=C(C(=O)[C@@H](OC(C)=O)[C@]12C)[C@@]1(C)CC[C@H](O)C(C)(C)[C@@H]1CC3=O [BUTYL LUCIDENATE E2] | Dose-dependent effect | 5.19 | Non-toxic | Active | Non-toxic |  |
| C[C@H](CC[C@@H](O)C(C)(C)O)[C@H]1CC[C@@]2(C)C3=CC[C@H]4C(C)(C)C(=O)CC[C@]4(C)C3=CC[C@]12C [GANODERMANONDIOL] |  |  | Non-toxic |  | Non-toxic |  |
